{"source": "patent US20090075941A1", "about": "“TREATING NEOPLASMS” (THE UAB RESEARCH FOUNDATION, priority 2006, published 2009)", "key": {"[1]": {"system": "unprenylated Rap1A in MDA-MB-231 breast cancer cells", "assay": "Western blot, unprenylated Rap1A (Example 2)", "type": "cell-based, human", "details": "MDA-MB-231 cells, 24 h; for effect on alendronate-induced accumulation of unprenylated Rap1A: 10^−4 M alendronate plus clodronate 10^−3 M, geranylgeraniol 25 μM, or cytokines/LPS", "experimental": "(§1) Western blot analysis. Cells were cultured on 6-well plates in normal culture medium until near confluency. The cells were then rinsed with sterile PBS and cultured for further 24 h in serum-tree culture medium, in the presence or absence of the indicated bisphosphonates. Some cultures were also treated with 25 μM geranylgeraniol (cold, all trans), 1.0 μg/ml LPS (Sigma; St. Louis, Mo.) 10 ng/ml IL-1β (R&D Systems; Minneapolis, Minn.) or TNF-α (R&D Systems). To study bisphosphonate effects on connexin-43 expression, the cells were cultured for 24 h in serum-free culture medium in the presence of the indicated bisphosphonates or PBS as a vehicle control. Culture medium was then discarded, the cells were quickly lysed and prepared into Western blot samples, as described in Merrell et al. (2000) Breast Cancer Res. Treat. 81, 231-241. After boiling the supernatants in reducing sodium docedyl sulfate (SDS) sample buffer, equal amounts of protein (˜20-50 μg) were loaded per lane and the samples were electrophoresed on 10% SDS polyacrylamide gel and transferred to a nitrocellulose membrane. To detect, unprenylated Rap1A, the blots were incubated overnight at 4° C. with the antibody SC-1482 (Santa Cruz Technology (San Diego, Calif.)), diluted 1:1000 in Tris-buffered saline, 0.1% (v/v) Tween-20 (TEST), and then with peroxidase-conjugated anti-goat serum (Pierce; Rockford, Ill.), diluted 1:1000 in TBST. Total Rap1 was detected from stripped blots in a similar fashion, with the antibody SC-65 (Santa Cruz Technology). The phosphorylation status of p38 was investigated using anti-phospho-p38 (Cell Signaling; Beverly, Mass.) and after stripping of the membrane, with anti-total p38 antibodies (Cell Signaling), according to the manufacturer's instructions. Expression of connexin-43 was detected with a rabbit anti-connexin-43 antibody (Zymed Laboratories, Inc.; San Francisco, Calif.), diluted 1:1000 in TBST. The protein bands were visualized by chemiluminescence using SuperSignal West Pico ECL kit (Pierce Biotechnology, Inc.; Rockford, Ill.)."}, "[2]": {"system": "p38 phosphorylation in MDA-MB-231 cells", "assay": "Western blot, phosphorylation of p38 (Example 2)", "type": "cell-based, human", "details": "10^−3 M", "experimental": "as §1, with “To detect, unprenylated Rap1A, the blots were incubated overnight at 4° C. with the antibody SC-1482 (Santa Cruz Technology (San Diego, Calif.)), diluted 1:1000 in Tris-buffered saline, 0.1% (v/v) Tween-20 (TEST), and then with peroxidase-conjugated anti-goat serum (Pierce; Rockford, Ill.), diluted 1:1000 in TBST.” left out, “The phosphorylation status of p38 was investigated using anti-phospho-p38 (Cell Signaling; Beverly, Mass.) and after stripping of the membrane, with anti-total p38 antibodies (Cell Signaling), according to the manufacturer's instructions.” left out, “The protein bands were visualized by chemiluminescence using SuperSignal West Pico ECL kit (Pierce Biotechnology, Inc.; Rockford, Ill.).” left out"}, "[3]": {"system": "unprenylated Rap1A in AB-12 mesothelioma cells", "assay": "Western blot, unprenylated Rap1A (Example 2)", "type": "cell-based, mouse", "details": "AB-12 cells, 24 h; for effect on nitrogen-containing bisphosphonate-induced accumulation of unprenylated Rap1A: pyrophosphate-resembling : nitrogen-containing bisphosphonate ratio 100:1", "experimental": "as §1"}, "MDA-MB-231 cells": {"system": "MDA-MB-231 cells", "assay": "Cell viability, MTS-assay", "type": "cell-based, human", "details": "for effect of added Ca2+ on the bisphosphonate's growth inhibitory effect: 1 mM CaCl2, N-BP 10^−4 M or p-BP 10^−3 M", "experimental": "(§2) Cell viability assays. Cells were plated on 96-well plates at the density of 1×10^3 cells in 100 μl per well in normal culture medium, with or without of the indicated concentrations of the various bisphosphonate combinations and or 1 mM CaCl2, 1 mM EGTA or vehicle and cultured for 48 h. Cell viability was assessed with 3-(4,5-dimethylthiazol-2-yl)-5-(3-carboxy tetrazolium, inner salt (MTS)-assays (CellTiter Aqueous One 96 from Promega; Madison, Wis.) according to the manufacturer's instructions. For each treatment, a PBS-control group was run simultaneously on the same plate. The results for each treatment were calculated as % of the corresponding PBS-group."}, "AB-12 cells": {"system": "AB-12 cells", "assay": "Cell viability, MTS-assay", "type": "cell-based, mouse", "details": "for effect of added Ca2+ on the bisphosphonate's growth inhibitory effect: 1 mM CaCl2, N-BP 10^−4 M or p-BP 10^−3 M", "experimental": "as §2"}, "[4]": {"system": "p38 phosphorylation in AB-12 cells", "assay": "Western blot, phosphorylation of p38 (Example 2)", "type": "cell-based, mouse", "details": "excess, added simultaneously", "experimental": "as §1, with “To detect, unprenylated Rap1A, the blots were incubated overnight at 4° C. with the antibody SC-1482 (Santa Cruz Technology (San Diego, Calif.)), diluted 1:1000 in Tris-buffered saline, 0.1% (v/v) Tween-20 (TEST), and then with peroxidase-conjugated anti-goat serum (Pierce; Rockford, Ill.), diluted 1:1000 in TBST.” left out, “The phosphorylation status of p38 was investigated using anti-phospho-p38 (Cell Signaling; Beverly, Mass.) and after stripping of the membrane, with anti-total p38 antibodies (Cell Signaling), according to the manufacturer's instructions.” left out, “The protein bands were visualized by chemiluminescence using SuperSignal West Pico ECL kit (Pierce Biotechnology, Inc.; Rockford, Ill.).” left out"}, "J774 cells": {"system": "J774 cells", "assay": "Cell viability, MTS-assay", "type": "cell-based", "details": "for effect of added EGTA on the bisphosphonate's growth inhibitory effect: 1 mM EGTA, N-BP 10^−4 M or clodronate 10^−3 M", "experimental": "as §2"}, "[5]": {"assay": "Tumor uptake of Tc99m-medronate, biodistribution", "type": "in vivo", "details": "nude mice, i.v.", "experimental": "Tumor uptake of Tc99m-medronate. To investigate accumulation of the bone scanning agent (Tc99m-medronate) into the subcutaneous tumors, nude mice were first inoculated subcutaneously with AB-12 or MDA-MB-231 cells (10^6 cells in 100 μl of sterile PBS) and the tumors were allowed to form for 3-4 weeks. Tc99m-medronate (MDP-Bracco™; Bracco Diagnostics Inc.; Princeton, N.J.) was then injected into the tail veins of the mice (˜800-1000 μCi per mouse) in 100 μl. High-resolution pinhole SPECT/CT imaging studies (X-SPECT system, GammaMedica, Inc.; Northridge, Calif.) and biodistribution analyses were performed in nude mice with xenografted rumors to measure in vivo tumor retention of Tc99 medronate following i.v. injection. For SPECT imaging, a total of 64 projections were acquired with a 30-sec acquisition time per projection, using a pinhole collimator with a 1-mm tungsten pinhole insert. […] The dose retention, or % Injected Dose per gram, (% ID/g) of each tissue was calculated by measuring the radioactivity in the tissue using a gamma counter, decay correcting the count rate data to the Tc99m-medronate injection time and normalizing to the total injected dose in the animal as well as the tissue weight. Each animal's dose was determined by measuring the dosing syringe (AtomLab 100 dose calibrator; Biodex Medical Systems; Shirley, N.Y.) before and after injecting the mouse. […]"}}}
{"molecule": "IL-1β: cytokine (R&D Systems), molecule completely unrelated to bisphosphonates", "values": [{"measurement": "effect on alendronate-induced accumulation of unprenylated Rap1A", "setting": "[1]", "result": "not blocked"}]}
{"molecule": "O=P(O)(O)C(Cl)(Cl)P(=O)(O)O", "note": "[clodronate]", "values": [{"measurement": "effect on zoledronate-induced (10^−4 M) p38 phosphorylation", "setting": "[2]", "result": "blocked"}, {"measurement": "accumulation of unprenylated Rap1A", "setting": "[3]", "result": "no effect"}, {"measurement": "effect on nitrogen-containing bisphosphonate-induced accumulation of unprenylated Rap1A", "setting": "[3]", "result": "completely blocked"}, {"measurement": "effect of added Ca2+ on the bisphosphonate's growth inhibitory effect", "setting": "MDA-MB-231 cells", "result": "not"}, {"measurement": "effect of added Ca2+ on the bisphosphonate's growth inhibitory effect", "setting": "AB-12 cells", "result": "augmented"}, {"measurement": "effect on nitrogen-containing bisphosphonate (risedronate or zoledronate)-induced p38 phosphorylation", "setting": "[4]", "result": "blocked"}, {"measurement": "effect of added EGTA on the bisphosphonate's growth inhibitory effect", "setting": "J774 cells", "result": "reversed"}, {"measurement": "cell viability", "setting": "J774 cells; 10^−3 M alone, P<0.001 vs PBS-control", "result": "highest sensitivity"}, {"measurement": "cell viability in combination with 1 mM CaCl2", "setting": "J774 cells; clodronate 10^−3 M + 1 mM CaCl2", "result": "toxic"}, {"measurement": "effect on alendronate-induced accumulation of unprenylated Rap1A", "setting": "[1]", "result": "reduced"}, {"measurement": "accumulation of unprenylated Rap1A", "setting": "[1]", "result": "no effect"}]}
{"molecule": "TNF-α", "values": [{"measurement": "effect on alendronate-induced accumulation of unprenylated Rap1A", "setting": "[1]", "result": "not blocked"}]}
{"molecule": "CC(C)=CCC/C(C)=C/CC/C(C)=C/CC/C(C)=C/CO", "note": "[geranylgeraniol]", "values": [{"measurement": "effect on alendronate-induced accumulation of unprenylated Rap1A", "setting": "[1]", "result": "reduced"}]}
{"molecule": "NCCCC(O)(P(=O)(O)O)P(=O)(O)O", "note": "[alendronate]", "values": [{"measurement": "accumulation of unprenylated Rap1A", "setting": "[3]", "result": "dose-dependent accumulation"}, {"measurement": "effect of added EGTA on the bisphosphonate's growth inhibitory effect", "setting": "MDA-MB-231 cells; 1 mM EGTA, N-BP 10^−4 M", "result": "reversed"}, {"measurement": "cell viability", "setting": "MDA-MB-231 cells; 10^−4 M, P<0.001", "result": "significant decrease in cell viability"}, {"measurement": "effect of added EGTA on the bisphosphonate's growth inhibitory effect", "setting": "AB-12 cells; 1 mM EGTA, N-BP 10^−4 M", "result": "reversed"}, {"measurement": "cell viability", "setting": "AB-12 cells; 10^−4 M, P<0.001", "result": "significant decrease in cell viability"}, {"measurement": "effect of added EGTA on the bisphosphonate's growth inhibitory effect", "setting": "J774 cells", "result": "reversed"}, {"measurement": "accumulation of unprenylated Rap1A", "setting": "[1]", "result": "dose-dependent accumulation"}]}
{"molecule": "CC(O)(P(=O)(O)O)P(=O)(O)O", "note": "[etidronate]", "values": [{"measurement": "effect on zoledronate-induced (10^−4 M) p38 phosphorylation", "setting": "[2]", "result": "blocked"}, {"measurement": "accumulation of unprenylated Rap1A", "setting": "[3]", "result": "no effect"}, {"measurement": "effect on nitrogen-containing bisphosphonate-induced accumulation of unprenylated Rap1A", "setting": "[3]", "result": "completely blocked"}, {"measurement": "effect of added Ca2+ on the bisphosphonate's growth inhibitory effect", "setting": "MDA-MB-231 cells", "result": "not"}, {"measurement": "effect of added Ca2+ on the bisphosphonate's growth inhibitory effect", "setting": "AB-12 cells", "result": "augmented"}, {"measurement": "effect on nitrogen-containing bisphosphonate (risedronate or zoledronate)-induced p38 phosphorylation", "setting": "[4]", "result": "blocked"}, {"measurement": "accumulation of unprenylated Rap1A", "setting": "[1]", "result": "no effect"}]}
{"molecule": "O=P(O)(O)CP(=O)(O)O", "note": "[Tc99m-medronate, metal not drawn]", "values": [{"measurement": "tissue with the highest accumulation: bones", "setting": "[5]; % dose retention in various tissues", "result": "highest proportion"}, {"measurement": "accumulation (% dose retention) in AB-12 mesothelioma tumors compared with MDA-MB-231 breast cancer tumors", "setting": "[5]; tissues ~8 h after injection, % ID/g normalized to blood, P<0.05", "result": "significantly higher"}]}
